Key:
[1] = system: AMO1 multiple plasmacytoma cells; assay: MTT cytotoxicity assay, AMO1; format: cell-based, human; details: AMO1, MTT, 48 h exposure; read-out: IC50 ± SD, AMO1
Method: (§1) To characterize the antitumor potential of the resulting Pd(II) pincer complexes, their cytotoxicities against a panel of human solid and hematopoietic cancer cell lines, including colorectal carcinoma (HCT116), breast cancer (MCF7), prostate adenocarcinoma (PC3), glioblastoma (U251), ovarian adenocarcinoma (Scov3), chronic myelogenous leukemia (K562) and its resistant subclone (K562/iS9), multiple plasmacytoma (AMO1), and acute lymphoblastic leukemia (H9) cell lineages, were evaluated using the conventional MTT assay. […] For comparison, the inhibitory effects of the compounds explored on noncancerous human embryonic kidney cells HEK293 as well as transformed breast cells HBL100 and their doxorubicin-resistant analogs HBL100/Dox were also investigated under the same conditions.
(§2) The cytotoxic activity of the compounds explored was investigated on human colorectal carcinoma (HCT116), breast cancer (MCF7), prostate adenocarcinoma (PC3), glioblastoma (U251), ovarian adenocarcinoma (Scov3), chronic myelogenous leukemia (K562 and K562/iS9), multiple plasmacytoma (AMO1), and acute lymphoblastic leukemia (H9) cell lines, as well as human embryonic kidney (HEK293) and mammary epithelial (HBL100 and HBL100/Dox) cells used as representatives of pseudonormal cells. All cell lines were obtained from American Type Culture Collection (ATCC). RPMI-1640 and DMEM media were obtained from Gibco. Fetal bovine serum (FBS) was purchased from HyClone. Cells were cultured in RPMI-1640 or DMEM media supplemented with 10% FBS and 50 μg/mL gentamicin in a humidified incubator with 5% CO2 atmosphere. The cell growth inhibitory effects of the compounds were evaluated using the conventional MTT assay (ICN Biomedicals, Eschwege, Germany). Cells were seeded in triplicate at a cell density of 5 × 10^3/well in 96-well plates in 100 µL complete medium and preincubated for 24 h. The tested compounds were initially dissolved in DMSO. Then, the compounds at various concentrations were added to the media. The well plates were incubated for 48 h followed by addition of MTT solution (Sigma, Darmstadt, Germany) (20 μL, 5 mg/mL). The cells were incubated at 37 °C for further 3 h; then the culture medium was removed, and formazan crystals were dissolved in DMSO (70 μL). The absorbance of the resulting solutions was measured on a multi-well plate reader (Multiskan FC, Thermo scientific) at 530 nm to determine the percentage of surviving cells. The reported values of IC50 are the averages of three independent experiments (Table 2 and Table 3). Cisplatin (in the initial form of an infusion concentrate in natural saline solution) from a commercial source was used as the reference.

[2] = system: PC3 prostate adenocarcinoma cells; assay: MTT cytotoxicity assay, PC3; format: cell-based, human; details: 48 h exposure, read-out: IC50 ± SD, PC3
Method: as §1, §2

[3] = system: HCT116 colorectal carcinoma cells; assay: MTT cytotoxicity assay, HCT116; format: cell-based, human; details: 48 h exposure, read-out: IC50 ± SD, HCT116
Method: as §1, §2

[4] = system: K562 chronic myelogenous leukemia cells; assay: MTT cytotoxicity assay, K562; format: cell-based, human; details: 48 h exposure, read-out: IC50 ± SD, K562
Method: as §1, §2

[5] = system: K562/iS9 resistant chronic myelogenous leukemia cells; assay: MTT cytotoxicity assay, K562/iS9; format: cell-based, human; details: 48 h exposure, read-out: IC50 ± SD, K562/iS9
Method: as §1, §2

[6] = system: H9 acute lymphoblastic leukemia cells; assay: MTT cytotoxicity assay, H9; format: cell-based, human; details: 48 h exposure, read-out: IC50 ± SD, H9
Method: as §1
as §2, with “Then, the compounds at various concentrations were added to the media. The well plates were incubated for 48 h followed by addition of MTT solution (Sigma, Darmstadt, Germany) (20 μL, 5 mg/mL). The cells were incubated at 37 °C for further 3 h; then the culture medium was removed, and formazan crystals were dissolved in DMSO (70 μL).” left out, “The reported values of IC50 are the averages of three independent experiments (Table 2 and Table 3). Cisplatin (in the initial form of an infusion concentrate in natural saline solution) from a commercial source was used as the reference.” left out

[7] = system: HEK293 embryonic kidney cells; assay: MTT cytotoxicity assay, HEK293; format: cell-based, human; details: HEK293 noncancerous cells, 48 h exposure, read-out: IC50 ± SD, HEK293
Method: as §1, §2

[8] = UV-vis stability study in DMSO, DMSO–water and DMSO–PBS; format: physicochemical; details: neat DMSO, DMSO–water and DMSO–PBS solutions, over 48 h
Method: The observed dependences correlate well with our previous findings on the lability of the phosphoryl sites in palladocycles 2a,b, 3a,b and can be rationalized in terms of their coordination behavior. […] However, the presence of an additional competitive chloride anion makes complex 2b potentially more susceptible to decoordination of the phosphoryl arm. […] At least the N,N-bidentately bound core remained intact in the mentioned media over a period of 48 h.
The NMR spectra were recorded on Bruker Avance 400 and Avance 500 spectrometers, and the chemical shifts (δ) were referenced internally by the residual (^1H) or deuterated (^13C) solvent signals relative to tetramethylsilane or externally to H3PO4 (^31P) or liquid ammonia (^15N). The ^15N chemical shifts were extracted from the ^1H–^15N HMBC spectra. In all cases, the ^13C{^1H} NMR spectra were registered using the JMODECHO mode; the signals for the C nuclei bearing odd and even numbers of protons had opposite polarities. The NMR peak assignments for ligand 1a and complexes 2a, 3a,b were based on the analysis of ^1H–^1H COSY, ^1H–^13C HSQC, and ^1H–^13C HMBC spectra. The results obtained were used to assign the NMR spectra of the other compounds obtained in this study. For the NMR spectra of the representative compounds, see Figures S1–S9 (1a), S11–S22 (2a), and S24–S35 (3b) in the Supporting Information. […]

[9] = system: HBL100 mammary epithelial cells; assay: MTT cytotoxicity assay, HBL100; format: cell-based, human; details: 48 h exposure, read-out: IC50 ± SD, HBL100
Method: as §1, §2

[10] = system: Scov3 ovarian adenocarcinoma cells; assay: MTT cytotoxicity assay, Scov3; format: cell-based, human; details: Scov3, compound concentration 80.0 μM, 48 h
Method: as §1, §2

[11] = system: HBL100/Dox doxorubicin-resistant mammary epithelial cells; assay: MTT cytotoxicity assay, HBL100/Dox; format: cell-based, human; details: MTT, 48 h exposure, read-out: IC50 ± SD, HBL100/Dox
Method: as §1, §2

MCF7 breast cancer cells = assay: MTT cytotoxicity assay, MCF7; format: cell-based, human; details: MCF7, MTT, 48 h exposure; read-out: IC50 ± SD, MCF7
Method: as §1, §2

U251 glioblastoma cells = assay: MTT cytotoxicity assay, U251; format: cell-based, human; details: 48 h exposure, read-out: IC50 ± SD, U251
Method: as §1, §2

`O=C(c1ccccn1)[N](CP(=O)(c1ccccc1)c1ccccc1)[Pd][Cl]` [complex 3a, [κ^3-O,N,N-(L)Pd(II)Cl]] gave an IC50 [1] of 32 ± 2 µM, an IC50 [2] of 26 ± 6 µM and an IC50 [3] of 36 ± 2 µM. It also gave an IC50 [4] of 36 ± 4 µM, an IC50 [5] of 40 ± 4.5 µM and an IC50 [6] of 23 ± 1 µM. For the same compound, the IC50 [7] was 34 ± 3 µM, the “stability by UV-vis spectroscopy” value [8] was “high stability” and the IC50 [9] was greater than 80 µM. For the same compound, the “percentage of live cells” value [10] was 30% ^5, the IC50 [11] was greater than 80 µM and the IC50 (MCF7 breast cancer cells) was 45 ± 5 µM. It also gave an IC50 (U251 glioblastoma cells) greater than 80 µM.

From paper PMC10146186, “Modulation of the Cytotoxic Properties of Pd(II) Complexes Based on Functionalized Carboxamides Featuring Labile Phosphoryl Coordination Sites” (Pharmaceutics, 2023)
